Blank lines part the entries; values can stand above or below the compound they belong to.
What was measured:
[1] = tested on: primary human macrophages; assay: Macrophage migration in response to chemoattractants (CytoSelect Cell Migration Assay); type: cell-based; settings: 10% human serum or 20% conditioned media from RPMI 8226 cells; p<0.05; FIG. 21
Description: (§1) The migration of macrophages in response to challenge with plating media containing 10% human serum, 20% conditioned tumor cell media, or 50 ng/ml TGF-β, VEGF, TNF-α, or IFN-γ was evaluated using the CytoSelect Cell Migration Assay (Cell Biolabs, San Diego, Calif.). […] The study was stopped 18 hours later and migration was evaluated after dissociation of the cells from the membrane followed by detection with Cyquant GR dye.
as §1, with “serum or” for “serum,”, “media” for “media, or 50 ng/ml TGF-β, VEGF, TNF-α, or IFN-γ”, “studies were” for “study was”, “h” for “hours”

[2] = Effector function (ADCC or CDC activity) of deglycosylated antibody; type: cell-based; settings: data not shown; unlike the intact antibody
[3] = target: T1, CD33 (Homo sapiens, UniProt P20138); assay: Binding of deglycosylated SGN-33 to CD33 by ELISA; settings: data not shown
[4] = target: T1, CD33; assay: SGN-33 signaling in HL-60 cells, primary human monocytes and macrophages (CD33 immunoprecipitation, Western blot); type: cell-based; parameters: endogenous in cells; host or cells: HL-60 (ATCC); primary human CD14+ monocytes (Cambrex); macrophages derived from human PBMCs; settings: HL-60 and monocytes; 30 minutes; FIG. 16
Description: Deglycosylation was confirmed by CE-SDS. […] Cell lysates were prepared and CD33 immunoprecipitated using an anti-CD33 rabbit polyclonal antibody (Santa Cruz Biotechnology, Santa Cruz, Calif.) prior to SDS PAGE gel electrophoresis. Western blot analyses of these samples were performed using the 4G10 phosphotyrosine antibody (Upstate Biotechnology, Temucula, Calif.), anti-CD33 antibody (NovoCastra, Norwell, Mass.), and anti-SHP-1 antibody (Calbiochem, San Diego, Calif.). Control lysate for SHP-1 was prepared from a B cell lymphoma cell line.

[5] = tested on: HL-60 cells; assay: Mouse AML model, HL-60 cells injected intravenously; type: in vivo, mice
Description: Mice were implanted with an AML cell line, HL-60, as follows: 5 million HL-60 cells were injected intravenously. The mice were treated with lintuzumab (10 mg/kg, q4d×4, ip), cytarabine (1 mg/kg, 5 mg/kg or 25 mg/kg, q1d×10, or 50 mg/kg or 100 mg/kg, q2d×5, ip) or lintuzumab with cytarabine (dosed as described previously). Treatment began on day one.
To confirm the data of the in vitro study, mice were implanted with an AML cell line, HL-60, as follows: 5 million HL-60 cells were injected intravenously. […] Treatment began on day one.

[6] = tested on: target cells; assay: ADCC activity, standard 51Cr release assay with NK cells; type: cell-based; settings: NK cells pre-treated for 2 to 3 h with drug prior to addition to target cells; FIG. 23
Description: Viable NK cells were pre-treated for 2 to 3 h with lenalidomide or thalidomide (as described in FIG. 23) prior to addition to target cells.

[7] = tested on: HEL 92.1.7 cells; assay: Complement-dependent cytotoxicity (CDC) on MDR+ CD33-positive AML cell line; type: cell-based, human; settings: HEL 92.1.7 cells preincubated with drug for two hours prior to anti-CD33 Ab; FIG. 4
Description: The purpose of this study was to determine whether the cytotoxic effects of an anti-CD33 antibody (HuM195) on AML cells could be enhanced by combination treatment with chemotherapeutic drugs. An MDR^+, CD33-positive AML cell line (HEL 92.1.7) was either untreated or preincubated with the indicated concentrations of thalidomide or 5-azacytidine for two hours prior to exposure to the anti-CD33 Ab. Cytotoxic activity was measured using a complement-dependent cytotoxicity (CDC) activity.

T1 sequence (P20138 18-364): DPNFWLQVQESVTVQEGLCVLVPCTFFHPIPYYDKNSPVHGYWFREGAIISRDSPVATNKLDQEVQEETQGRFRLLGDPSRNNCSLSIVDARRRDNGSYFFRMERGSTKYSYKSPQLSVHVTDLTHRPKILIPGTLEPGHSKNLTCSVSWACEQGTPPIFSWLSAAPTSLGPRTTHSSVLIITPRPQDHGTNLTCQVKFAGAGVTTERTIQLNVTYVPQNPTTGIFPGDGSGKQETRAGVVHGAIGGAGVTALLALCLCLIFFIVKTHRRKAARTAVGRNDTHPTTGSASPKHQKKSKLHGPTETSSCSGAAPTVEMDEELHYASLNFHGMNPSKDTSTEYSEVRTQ

binding to CD33 [3]: confirmed | recruitment of SHP-1 to the CD33 complex [4]: resulted in recruitment of SHP-1
Compound: deglycosylated SGN-33: SGN-33 treated with PN-glycosidase F; does not interact with Fc receptors
macrophage migration [1]: significantly reduced | effector function, including ADCC or CDC activity [2]: did not mediate effector function

Compound: Nc1ccn([C@@H]2O[C@H](CO)[C@@H](O)[C@@H]2O)c(=O)n1 [cytarabine, reference compound]
percent survival rates compared to untreated controls ([5]; low doses of cytarabine alone, ip, FIG. 22): increasing percent survival rates

Compound: Nc1cccc2c1CN(C1CCC(=O)NC1=O)C2=O (stereo not shown) [lenalidomide, reference compound]
SGN-33 mediated ADCC [6]: enhance SGN-33 mediated ADCC | day by which mice were removed from study due to tumor progression ([5]; lenalidomide 25 mg/kg, qd×3, ip alone, control mice about day 60, FIG. 24): ~90 days

Compound: O=C1CCC(N2C(=O)c3ccccc3C2=O)C(=O)N1 (stereo not shown) [thalidomide]
SGN-33 mediated ADCC [6]: enhance SGN-33 mediated ADCC | sensitivity of MDR+ AML cells to HuM195-mediated CDC activity [7]: enhanced the sensitivity

Compound: Nc1ncn([C@@H]2O[C@H](CO)[C@@H](O)[C@H]2O)c(=O)n1 [5-azacytidine]
sensitivity of MDR+ AML cells to HuM195-mediated CDC activity [7]: enhanced the sensitivity
